# Source: patent publication US20100298141A1, “SUBSTITUTED PYRIDINE N-OXIDE HERBICIDES” (E. I. DU PONT DE NEMOURS AND COMPANY, priority 2007, published 2010)
# Legend:
# duck salad = assay: Test C flooded paddy test; type: in vivo, Heteranthera limosa; conditions: Flood
# Method in brief: (§1)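 Test compounds are applied straight into paddy water held 3 cm above the soil surface, with that flood maintained for the whole test. After 13 to 15 days in the greenhouse, each species is scored visually relative to controls.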
# barnyardgrass = assay: Test C flooded paddy test; type: in vivo, Echinochloa crus-galli; conditions: Flood
# Method in brief: as §1
# blackgrass = assay: Test C pre-/postemergence test; type: in vivo, Alopecurus myosuroides
# Method in brief: (§2)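 Compounds in a non-phytotoxic solvent with surfactant applied preemergence to seeded pots and, at the same time, postemergence to plants 2–18 cm tall (1- to 4-leaf stage). Paddy tests: pots flooded to 3 cm, compound applied into the water, depth held throughout.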
# downy brome = assay: Test C pre-/postemergence test; type: in vivo, Bromus tectorum; conditions: for Plant response rating, Bromegrass, Downy: scale 0 to 100, 0 no effect, 100 complete control
# Method in brief: as §2
# corn = assay: Test C pre-/postemergence test; type: in vivo, Zea mays
# Method in brief: as §2
# morningglory = assay: Test C pre-/postemergence test; type: in vivo, Ipomoea coccinea
# Method in brief: as §2
# wild oat = assay: Test C pre-/postemergence test; type: in vivo, Avena fatua
# Method in brief: as §2
# velvetleaf [1] = assay: Test C pre-/postemergence test; type: in vivo, Abutilon theophrasti
# Method in brief: as §2
# Italian ryegrass = assay: Test C pre-/postemergence test; type: in vivo, Lolium multiflorum
# Method in brief: as §2
# velvetleaf [2] = assay: Test A pre-/postemergence greenhouse test; type: in vivo, Abutilon theophrasti; conditions: for Plant response rating, Velvetleaf: 0 to 100 scale where 0 is no effect and 100 is complete control; for Velvetleaf plant response rating: 0 to 100 scale
# Method in brief: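 Visual injury ratings against untreated controls, taken roughly ten days after treatment in greenhouse. Plants were sprayed postemergence at one- to two-leaf stage (2–10 cm tall); at the same time, seeded loam/sand soil received a directed preemergence spray. Formulation: non-phytotoxic solvent mixture with surfactant.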
# johnsongrass = assay: Test C pre-/postemergence test; type: in vivo, Sorghum halepense
# Method in brief: as §2
# woolly cupgrass = assay: Test C pre-/postemergence test; type: in vivo, Eriochloa villosa
# Method in brief: as §2
# cocklebur = assay: Test C pre-/postemergence test; type: in vivo, Xanthium strumarium
# Method in brief: as §2
# soybean = assay: Test C pre-/postemergence test; type: in vivo, Glycine max; conditions: for Plant response rating, Soybean: scale 0 to 100, 0 no effect, 100 complete control
# Method in brief: as §2
# giant foxtail = assay: Test C pre-/postemergence test; type: in vivo, Setaria faberii
# Method in brief: as §2
# green foxtail = assay: Test C pre-/postemergence test; type: in vivo, Setaria viridis
# Method in brief: as §2
# [3] = 62 g ai/ha, scale 0 to 100 (0 no effect, 100 complete control)
# [4] = 250 g ai/ha, scale 0 to 100, 0 no effect, 100 complete control, 13 to 15 days
# [5] = 62 g ai/ha, Preemergence, scale 0 to 100
# [6] = 125 g ai/ha, preemergence, scale 0 (no effect) to 100 (complete control)
# [7] = Preemergence, 31 g ai/ha, scale 0 to 100 (0 no effect, 100 complete control)
# [8] = preemergence, 250 g ai/ha, scale 0 (no effect) to 100 (complete control)
# [9] = Postemergence, 500 g ai/ha, 0 is no effect, 100 is complete control
# [10] = Preemergence, 125 g ai/ha, 0 no effect, 100 complete control
# [11] = Postemergence, 62 g ai/ha, scale 0 to 100, 0 no effect, 100 complete control
# [12] = Postemergence, 125 g ai/ha, scale 0 to 100, 0 no effect, 100 complete control
# [13] = Postemergence, 250 g ai/ha, scale 0 to 100, 0 no effect, 100 complete control
smiles,measurement,setting,value
Cc1cc([S+]([O-])Cc2c(C(F)(F)F)nn(C)c2OCC(F)(F)F)[n+]([O-])cc1Cl (centres unmarked) [Compound 70],"Plant response rating, Ducksalad",duck salad; [3],85
same,"Plant response rating, Ducksalad",duck salad; [4],100
same,"Plant response rating, Barnyardgrass",barnyardgrass; [3],0
same,"Plant response rating, Barnyardgrass",barnyardgrass; [4],95
same,Blackgrass plant response rating,blackgrass; [5],100
same,Blackgrass plant response rating,blackgrass; [6],100
same,"Plant response rating, Blackgrass",blackgrass; [7],100
same,Blackgrass plant response rating,blackgrass; [8],100
same,"Bromegrass, Downy plant response rating",downy brome; [5],80
same,"Bromegrass, Downy plant response rating",downy brome; [6],100
same,"Bromegrass, Downy plant response rating",downy brome; [8],100
same,Corn plant response rating,corn; [5],95
same,Corn plant response rating,corn; [6],98
same,"Plant response rating, Corn",corn; [7],50
same,Corn plant response rating,corn; [8],100
same,Morningglory plant response rating,morningglory; [5],80
same,Morningglory plant response rating,morningglory; [6],100
same,"Plant response rating, Morningglory",morningglory; [7],0
same,Morningglory plant response rating,morningglory; [8],100
same,"Oat, Wild plant response rating",wild oat; [5],95
same,"Oat, Wild plant response rating",wild oat; [6],100
same,"Plant response rating, Oat, Wild",wild oat; [7],70
same,"Oat, Wild plant response rating",wild oat; [8],100
same,Velvetleaf plant response rating,velvetleaf [1]; [5],85
same,Velvetleaf plant response rating,velvetleaf [1]; [6],100
same,"Plant response rating, Velvetleaf",velvetleaf [1]; [7],35
same,Velvetleaf plant response rating,velvetleaf [1]; [8],100
same,"Ryegrass, Italian plant response rating",Italian ryegrass; [5],85
same,"Ryegrass, Italian plant response rating",Italian ryegrass; [6],100
same,"Plant response rating, Ryegrass, Italian",Italian ryegrass; [7],85
same,"Ryegrass, Italian plant response rating",Italian ryegrass; [8],100
same,"Plant response rating, Velvetleaf","velvetleaf [2]; Postemergence, 125 g ai/ha",60
same,Velvetleaf plant response rating,velvetleaf [2]; [9],70
same,Velvetleaf plant response rating,velvetleaf [2]; [10],40
same,"Plant response rating, Velvetleaf","velvetleaf [2]; Preemergence, 500 g ai/ha",100
same,Johnsongrass plant response rating,johnsongrass; [5],100
same,Johnsongrass plant response rating,johnsongrass; [6],100
same,"Plant response rating, Johnsongrass",johnsongrass; [7],70
same,Johnsongrass plant response rating,johnsongrass; [8],100
same,"Cupgrass, Woolly plant response rating",woolly cupgrass; [5],98
same,"Cupgrass, Woolly plant response rating",woolly cupgrass; [6],100
same,"Plant response rating, Cupgrass, Woolly",woolly cupgrass; [7],95
same,"Cupgrass, Woolly plant response rating",woolly cupgrass; [8],100
same,Cocklebur plant response rating,cocklebur; [5],0
same,Cocklebur plant response rating,cocklebur; [6],0
same,"Plant response rating, Cocklebur",cocklebur; [7],0
same,Cocklebur plant response rating,cocklebur; [8],0
same,Soybean plant response rating,soybean; [5],30
same,Soybean plant response rating,soybean; [6],80
same,Soybean plant response rating,soybean; [8],85
same,"Foxtail, Giant plant response rating",giant foxtail; [5],100
same,"Plant response rating, Foxtail, Giant",giant foxtail; [7],90
same,"Foxtail, Giant plant response rating",giant foxtail; [8],100
same,"Foxtail, Green plant response rating",green foxtail; [5],100
same,"Foxtail, Green plant response rating",green foxtail; [6],100
same,"Plant response rating, Foxtail, Green",green foxtail; [7],100
same,"Foxtail, Green plant response rating",green foxtail; [8],100
Cn1nc(C(F)(F)F)c(C[S+]([O-])c2cccc[n+]2[O-])c1OCC(F)(F)C(F)(F)F (centres unmarked) [Compound 78],"Plant response rating, Ducksalad",duck salad; [3],30
same,"Plant response rating, Ducksalad",duck salad; [4],70
same,"Plant response rating, Barnyardgrass",barnyardgrass; [3],0
same,"Plant response rating, Barnyardgrass",barnyardgrass; [4],50
same,"Plant response rating (0 to 100), Blackgrass","blackgrass; Postemergence, 31 g ai/ha",0
same,"Plant response rating, Blackgrass",blackgrass; [11],0
same,"Plant response rating, Blackgrass",blackgrass; [12],50
same,"Plant response rating, Blackgrass",blackgrass; [13],100
same,"Plant response rating (0 to 100), Bromegrass, Downy","downy brome; Postemergence, 31 g ai/ha",0
same,"Plant response rating, Bromegrass, Downy","downy brome; Postemergence, 62 g ai/ha",0
same,"Plant response rating, Bromegrass, Downy","downy brome; Postemergence, 125 g ai/ha",0
same,"Plant response rating, Bromegrass, Downy","downy brome; Postemergence, 250 g ai/ha",0
same,"Plant response rating (0 to 100), Corn","corn; Postemergence, 31 g ai/ha",0
same,"Plant response rating, Corn",corn; [11],0
same,"Plant response rating, Corn",corn; [12],0
same,"Plant response rating, Corn",corn; [13],20
same,"Plant response rating (0 to 100), Morningglory","morningglory; Postemergence, 31 g ai/ha",0
same,"Plant response rating, Morningglory",morningglory; [11],0
same,"Plant response rating, Morningglory",morningglory; [12],0
same,"Plant response rating, Morningglory",morningglory; [13],0
same,"Plant response rating (0 to 100), Oat, Wild","wild oat; Postemergence, 31 g ai/ha",0
same,"Plant response rating, Oat, Wild",wild oat; [11],0
same,"Plant response rating, Oat, Wild",wild oat; [12],0
same,"Plant response rating, Oat, Wild",wild oat; [13],0
same,"Plant response rating (0 to 100), Velvetleaf","velvetleaf [1]; Postemergence, 31 g ai/ha",0
same,"Plant response rating (0 to 100), Velvetleaf","velvetleaf [1]; Postemergence, 62 g ai/ha",0
same,"Plant response rating, Velvetleaf",velvetleaf [1]; [12],0
same,"Plant response rating, Velvetleaf",velvetleaf [1]; [13],20
same,"Plant response rating (0 to 100), Ryegrass, Italian","Italian ryegrass; Postemergence, 31 g ai/ha",0
same,"Plant response rating (0 to 100), Ryegrass, Italian","Italian ryegrass; Postemergence, 62 g ai/ha",0
same,"Plant response rating, Ryegrass, Italian",Italian ryegrass; [12],30
same,"Plant response rating, Ryegrass, Italian",Italian ryegrass; [13],30
same,"Plant response rating, Velvetleaf","velvetleaf [2]; Postemergence, 125 g ai/ha",30
same,Velvetleaf plant response rating,velvetleaf [2]; [9],70
same,Velvetleaf plant response rating,velvetleaf [2]; [10],0
same,"Plant response rating, Velvetleaf","velvetleaf [2]; Preemergence, 500 g ai/ha",90
same,"Plant response rating (0 to 100), Johnsongrass","johnsongrass; Postemergence, 31 g ai/ha",0
same,"Plant response rating, Johnsongrass",johnsongrass; [11],0
same,"Plant response rating, Johnsongrass",johnsongrass; [12],0
same,"Plant response rating, Johnsongrass",johnsongrass; [13],45
same,"Plant response rating (0 to 100), Cupgrass, Woolly","woolly cupgrass; Postemergence, 31 g ai/ha",0
same,"Plant response rating, Cupgrass, Woolly",woolly cupgrass; [11],0
same,"Plant response rating, Cupgrass, Woolly",woolly cupgrass; [12],0
same,"Plant response rating, Cupgrass, Woolly",woolly cupgrass; [13],20
same,"Plant response rating (0 to 100), Cocklebur","cocklebur; Postemergence, 31 g ai/ha",0
same,"Plant response rating, Cocklebur",cocklebur; [11],0
same,"Plant response rating, Cocklebur",cocklebur; [12],0
same,"Plant response rating, Cocklebur",cocklebur; [13],0
same,"Plant response rating (0 to 100), Soybean","soybean; Postemergence, 62 g ai/ha",20
same,"Plant response rating, Soybean","soybean; Postemergence, 125 g ai/ha",60
same,"Plant response rating, Soybean","soybean; Postemergence, 250 g ai/ha",65
same,"Plant response rating (0 to 100), Foxtail, Giant","giant foxtail; Postemergence, 31 g ai/ha",0
same,"Plant response rating, Foxtail, Giant",giant foxtail; [11],0
same,"Plant response rating, Foxtail, Giant",giant foxtail; [12],45
same,"Plant response rating, Foxtail, Giant",giant foxtail; [13],45
same,"Plant response rating (0 to 100), Foxtail, Green","green foxtail; Postemergence, 31 g ai/ha",0
same,"Plant response rating, Foxtail, Green",green foxtail; [11],0
same,"Plant response rating, Foxtail, Green",green foxtail; [12],45
same,"Plant response rating, Foxtail, Green",green foxtail; [13],80
